Laboratory results reported in publication PMC8495455, “Discovery of a transdermally deliverable pentapeptide for activating AdipoR1 to promote hair growth” (EMBO Molecular Medicine, 2021).

Experiments:
[1] = test system: IGF-1 mRNA; assay: qRT-PCR growth factor gene expression in DP cells, IGF-1; format: cell-based, human; details: for mRNA_IGF1: DP cells
Description: (§1) Next, we investigated the downstream effects of P5 on hair growth factor genes and proteins in DP cells. […] We tested whether P5 can also increase the mRNA levels and proteins of hair growth factors in DP cells: IGF‐1, VEGF, HGF, platelet‐derived growth factor alpha (PDGFA), and fibroblast growth factor (FGF) 7, which are known to induce or maintain the anagen phase of the hair cycle (Jindo et al, [1994]; Philpott et al, [1994]; Yano et al, [2001]; Jang, [2005]; Tomita et al, [2006]; Iino et al, [2007]).
Total RNA was isolated from P5‐treated DP cells using RNAiso Plus (#9109; TaKaRa). We used the total RNA (1 µg) for cDNA synthesis using a RevertAid First Strand cDNA Synthesis Kit (Thermo Fisher) according to the manufacturer's instructions. The mRNA expression levels were quantified on a 7500 Real‐time PCR System (Thermo Fisher) using TB Green Premix Ex Taq (TaKaRa Bio): human IGF‐1, VEGF, HGF, PDGFA, FGF7, and glyceraldehyde 3‐phosphate dehydrogenase (GAPDH) (Appendix Table S2). The relative expression levels of each gene were determined by the 2^‐ΔΔCT method.

[2] = test system: FGF7 protein; assay: Growth factor protein quantitation in DP cell medium, FGF7; format: cell-based, human; details: for protein_FGF7: DP cell medium
Description: as §1
Human DP cells were grown on a 100‐mm cell culture dish to 100% confluency. After washed by PBS three times, the cells were cultured with serum‐free DMEM and treated with P5. After 48 h, the medium was collected and filtered by a […]. The filtrate was then concentrated using a centrifugal concentrator (Vivaspin 6, 10‐kDa molecular weight cutoff, centrifuged 2,600 g at 4°C for 13 min, Sartorius Stedim Biotech). The signals of each protein in the concentrated media were detected and quantified, based on the enzyme‐linked immunosorbent assay (Human Cytokine Antibody Array C2000, RayBiotech).

[3] = test system: C57BL/6 (WT) mice; assay: Mouse hair cycle modulation, hair cycle score, WT mice; format: in vivo; details: for Gross morphology of dorsum: topical
Description: First, we topically applied P5 and minoxidil as a positive control (Messenger & Rundegren, [2004]) on wildtype (WT) mouse. […] Overall, the hair cycle score was higher in the P5‐treated mice than vehicle‐treated mice (Fig 4B). […] Collectively, P5 induces anagen hair cycle in vivo.
For the hair cycle modulation experiment, Adipoq ^−/− (stock #008195; JAX) (Ma et al, [2002]), Adipor1 ^−/− (Yamauchi et al, [2007]; Okada‐Iwabu et al, [2013]), or C57BL/6 (KOATECH) female mice was used (Müller‐Röver et al, [2001]). They were housed (up to four animals per cage; 23 ± 2°C, 8:00–20:00, 12 h/12 h light/dark cycle). Mice were fed a standard chow diet and provided food and water ad libitum. Mice were randomly allocated and shaved dorsally at 7.5 weeks of age. Only mice in telogen were included for the further experiments (Müller‐Röver et al, [2001]). From 8 weeks of age, the shaved dorsal area was treated with vehicle control (ethanol and polyethylene glycol, 30% and 70% v/v), P5 (0.1 mM), or minoxidil (3%) every day. The mouse hair growth score (a value from 0 to 100 based on the skin pigmentation and hair shaft density) was monitored and documented at designated days with the experimenters being blind to the conditions, following a previous study (Chai et al, [2019]). A higher score corresponds to a transition from telogen to anagen. On day 35, we obtained dorsal cutaneous tissue for histological analysis: anagen induction scores (calculated using an assigned arbitrary score; telogen = 1, anagen I–VI = 2–7) (Müller‐Röver et al, [2001]).

[4] = test system: human ORS cells; assay: MTT cell proliferation assay, ORS cells; format: cell-based; details: 0.5 or 5 μg/ml, 48 h, Paired t-test vs control
Description: To design transdermally deliverable AdipoR1 agonist, we further assessed the 15‐mer sequence by cutting it into several 5‐mer peptides (Fig EV1B) (Bos & Meinardi, [2000]). Based on the fact that AdipoRs are expressed in HF cells, including dermal papilla (DP) and outer root sheath (ORS) cells (Won et al, [2012]), we performed a cell proliferation assay on human DP and ORS cells to see if there is any potential biological effect of the 5‐mer peptides on the human HF cells.
Dermal papilla cells and ORS cells were seeded into a 96‐well plate (1.0 × 10^4 cells/well) with serum‐free culture media for 24 h and then treated with each candidate 5‐mer peptide (in 0.5 μg/ml or 5 μg/ml) for 48 h. After the addition of MTT solution (20 μl, 5 mg/ml) to each well, the cells were incubated for 4 h at 37°C in the dark room and then incubated with dimethyl sulfoxide (DMSO, 200 μl) for 20 min at room temperature. The samples were assessed by measuring the absorbance at 570 nm with an absorbance microplate reader (VersaMax).

[5] = P5 5μM, relative to Control = 1, replicate 1
[6] = P5 5μM, relative to Control = 1, replicate 2
[7] = P5 5μM, relative to Control = 1, replicate 3
[8] = P5 25μM, relative to Control = 1, replicate 1
[9] = P5 25μM, relative to Control = 1, replicate 2
[10] = P5 25μM, relative to Control = 1, replicate 3

## GLYYF [P5, GST-fused (GST-P5) in pulldown assays]
[1]; [5]
  mRNA_IGF1: 1.775
[1]; [6]
  mRNA_IGF1: 0.9141
[1]; [7]
  mRNA_IGF1: 1.9981
[1]; P5 5μM, relative to Control = 1, replicate 4
  mRNA_IGF1: 0.5956
[1]; P5 5μM, relative to Control = 1, replicate 5
  mRNA_IGF1: 0.9696
[1]; [8]
  mRNA_IGF1: 4.048
[1]; [9]
  mRNA_IGF1: 1.581
[1]; [10]
  mRNA_IGF1: 3.012
[1]; P5 25μM, relative to Control = 1, replicate 4
  mRNA_IGF1: 4.414
[1]; P5 25μM, relative to Control = 1, replicate 5
  mRNA_IGF1: 1.2502
[1]; P5-treated DP cells, n = 5
  IGF-1 mRNA expression: significantly increased
[2]; [5]
  protein_FGF7: 1.396
[2]; [6]
  protein_FGF7: 1.679
[2]; [7]
  protein_FGF7: 1.269
[2]; [8]
  protein_FGF7: 3.318
[2]; [9]
  protein_FGF7: 3.35
[2]; [10]
  protein_FGF7: 1.357
[2]; P5-treated DP cells, 48 h medium, n = 3
  FGF7 protein expression level: elevated
[3]; n = 16 mice/group, Two-way ANOVA
  Hair cycle score vs vehicle: higher
[3]; day 14
  Gross morphology of dorsum: obvious pigmentation and hair
[3]; day 35
  Gross morphology of dorsum: manifested a black hair coat
[4]
  Cell proliferative effect, ORS cells: significant cell proliferative effects
